Assay results reported in the supplement of paper PMC8967900.

What was measured:
Experiment in all cases: selective drug sensitivity score (sDSS, relative to normal bone marrow) (sDSS (score)); higher = more potent and effective on the cell line relative to normal bone marrow cells
Details in all cases: 72 h
NALL-1 = test system: NALL-1
MN-60 = test system: MN-60
LC4-1 = test system: LC4-1
CCRF-CEM = test system: CCRF-CEM
MHH-CALL-2 = test system: MHH-CALL-2
COG-LL-319h = test system: COG-LL-319h
COG-LL-394h = test system: COG-LL-394h
ALL-PO = test system: ALL-PO
MHH-CALL-4 = test system: MHH-CALL-4
MOLT-16 = test system: MOLT-16
SEM cells = test system: SEM cells
P30-OHKUBO = test system: P30-OHKUBO
NALM-16 = test system: NALM-16
JURKAT = test system: JURKAT
ALL-SIL = test system: ALL-SIL
COG-LL-332h = test system: COG-LL-332h
PEER = test system: PEER
MHH-CALL-3 = test system: MHH-CALL-3
NALM-6 = test system: NALM-6
380 = test system: 380
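Also: ALL cell lines in 384-well plates, five doses spanning 10,000-fold, each plate scaled between vehicle and 100 µmol/L benzalkonium chloride controls, sDSS an adapted area-under-curve metric.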

SMILES: CC1CCC(n2c3cnccc3c3cnc(Nc4ccc5c(n4)CCN(C(=O)CO)C5)nc32)CC1 (stereo not given) [AMG-925] (top concentration 1000 nM)
- selective drug sensitivity score (NALL-1): -0.16
- selective drug sensitivity score (MN-60): -0.66
- selective drug sensitivity score (LC4-1): 9.24
- selective drug sensitivity score (CCRF-CEM): 3.14
- selective drug sensitivity score (MHH-CALL-2): 4.94
- selective drug sensitivity score (COG-LL-319h): 6.44
- selective drug sensitivity score (COG-LL-394h): -0.66
- selective drug sensitivity score (ALL-PO): 11.4
- selective drug sensitivity score (MHH-CALL-4): 3.54
- selective drug sensitivity score (MOLT-16): 10.5
- selective drug sensitivity score (SEM cells): 10
- selective drug sensitivity score (P30-OHKUBO): 8.14
- selective drug sensitivity score (NALM-16): 6.34
- selective drug sensitivity score (JURKAT): 4.54
- selective drug sensitivity score (ALL-SIL): 2.04
- selective drug sensitivity score (COG-LL-332h): 4.34
- selective drug sensitivity score (PEER): 5.54
- selective drug sensitivity score (MHH-CALL-3): 4.94
- selective drug sensitivity score (NALM-6): 4.74
- selective drug sensitivity score 380: 2.44

SMILES: NC[C@@](O)(c1ccc(Cl)cc1)c1ccc(-c2cn[nH]c2)cc1 (top concentration 10000 nM)
- selective drug sensitivity score (NALL-1): -1.22
- selective drug sensitivity score (MN-60): 0.58
- selective drug sensitivity score (LC4-1): 1.28
- selective drug sensitivity score (CCRF-CEM): 3.88
- selective drug sensitivity score (MHH-CALL-2): 2.58
- selective drug sensitivity score (COG-LL-319h): 1.48
- selective drug sensitivity score (COG-LL-394h): -1.22
- selective drug sensitivity score (ALL-PO): 3.98
- selective drug sensitivity score (MHH-CALL-4): 1.78
- selective drug sensitivity score (MOLT-16): 0.38
- selective drug sensitivity score (SEM cells): 6.58
- selective drug sensitivity score (P30-OHKUBO): 3.68
- selective drug sensitivity score (NALM-16): -1.22
- selective drug sensitivity score (JURKAT): 2.58
- selective drug sensitivity score (ALL-SIL): -1.22
- selective drug sensitivity score (COG-LL-332h): 2.68
- selective drug sensitivity score (PEER): 3.08
- selective drug sensitivity score (MHH-CALL-3): 5.78
- selective drug sensitivity score (NALM-6): 1.28
- selective drug sensitivity score 380: 13.9

SMILES: C/C=C1\NC(=O)[C@H]2CSSCC/C=C/[C@H](CC(=O)N[C@H](C(C)C)C(=O)N2)OC(=O)[C@H](C(C)C)NC1=O [Romidepsin] (top concentration 1000 nM)
- selective drug sensitivity score (NALL-1): 2.06
- selective drug sensitivity score (MN-60): -4.94
- selective drug sensitivity score (LC4-1): 1.76
- selective drug sensitivity score (CCRF-CEM): 1.16
- selective drug sensitivity score (MHH-CALL-2): 6.76
- selective drug sensitivity score (COG-LL-319h): 1.16
- selective drug sensitivity score (COG-LL-394h): -0.94
- selective drug sensitivity score (ALL-PO): 6.96
- selective drug sensitivity score (MHH-CALL-4): 3.06
- selective drug sensitivity score (MOLT-16): 2.76
- selective drug sensitivity score (SEM cells): 3.96
- selective drug sensitivity score (P30-OHKUBO): 1.66
- selective drug sensitivity score (NALM-16): 0.76
- selective drug sensitivity score (JURKAT): 2.06
- selective drug sensitivity score (ALL-SIL): 3.26
- selective drug sensitivity score (COG-LL-332h): 1.36
- selective drug sensitivity score (PEER): 2.06
- selective drug sensitivity score (MHH-CALL-3): 9.76
- selective drug sensitivity score (NALM-6): 2.66
- selective drug sensitivity score 380: 8.56

SMILES: CC(C)c1cc(-c2n[nH]c(=O)n2-c2ccc3c(ccn3C)c2)c(O)cc1O [Ganetespib] (top concentration 1000 nM)
- selective drug sensitivity score (NALL-1): -1.86
- selective drug sensitivity score (MN-60): -5.06
- selective drug sensitivity score (LC4-1): 1.44
- selective drug sensitivity score (CCRF-CEM): 2.04
- selective drug sensitivity score (MHH-CALL-2): -1.36
- selective drug sensitivity score (COG-LL-319h): 1.14
- selective drug sensitivity score (COG-LL-394h): -3.26
- selective drug sensitivity score (ALL-PO): 3.84
- selective drug sensitivity score (MHH-CALL-4): -0.56
- selective drug sensitivity score (MOLT-16): 4.74
- selective drug sensitivity score (SEM cells): 1.24
- selective drug sensitivity score (P30-OHKUBO): 2.24
- selective drug sensitivity score (NALM-16): -2.76
- selective drug sensitivity score (JURKAT): -2.46
- selective drug sensitivity score (ALL-SIL): 1.14
- selective drug sensitivity score (COG-LL-332h): 6.64
- selective drug sensitivity score (PEER): -1.86
- selective drug sensitivity score (MHH-CALL-3): 6.64
- selective drug sensitivity score (NALM-6): 2.34
- selective drug sensitivity score 380: 2.74

SMILES: COc1cc(Nc2ncc(F)c(Nc3ccc4c(n3)N(COP(=O)(O)O)C(=O)C(C)(C)O4)n2)cc(OC)c1OC [Fostamatinib] (top concentration 2500 nM)
- selective drug sensitivity score (NALL-1): -2.64
- selective drug sensitivity score (MN-60): -1.34
- selective drug sensitivity score (LC4-1): 2.56
- selective drug sensitivity score (CCRF-CEM): -2.34
- selective drug sensitivity score (MHH-CALL-2): 0.56
- selective drug sensitivity score (COG-LL-319h): 15.3
- selective drug sensitivity score (COG-LL-394h): -1.54
- selective drug sensitivity score (ALL-PO): 8.06
- selective drug sensitivity score (MHH-CALL-4): -2.74
- selective drug sensitivity score (MOLT-16): -2.84
- selective drug sensitivity score (SEM cells): 9.96
- selective drug sensitivity score (P30-OHKUBO): 2.96
- selective drug sensitivity score (NALM-16): -1.44
- selective drug sensitivity score (JURKAT): -2.14
- selective drug sensitivity score (ALL-SIL): 1.96
- selective drug sensitivity score (COG-LL-332h): -0.44
- selective drug sensitivity score (PEER): 0.66
- selective drug sensitivity score (MHH-CALL-3): -1.44
- selective drug sensitivity score (NALM-6): 2.96
- selective drug sensitivity score 380: -2.84

SMILES: N#CCNC(=O)c1ccc(-c2ccnc(Nc3ccc(N4CCOCC4)cc3)n2)cc1 [Momelotinib] (top concentration 10000 nM)
- selective drug sensitivity score (NALL-1): -6.72
- selective drug sensitivity score (MN-60): -7.22
- selective drug sensitivity score (LC4-1): -4.62
- selective drug sensitivity score (CCRF-CEM): -2.52
- selective drug sensitivity score (MHH-CALL-2): -2.22
- selective drug sensitivity score (COG-LL-319h): 0.28
- selective drug sensitivity score (COG-LL-394h): -3.92
- selective drug sensitivity score (ALL-PO): 2.48
- selective drug sensitivity score (MHH-CALL-4): -1.12
- selective drug sensitivity score (MOLT-16): 0.28
- selective drug sensitivity score (SEM cells): 1.48
- selective drug sensitivity score (P30-OHKUBO): 1.58
- selective drug sensitivity score (NALM-16): -8.32
- selective drug sensitivity score (JURKAT): -5.12
- selective drug sensitivity score (ALL-SIL): -1.82
- selective drug sensitivity score (COG-LL-332h): -0.82
- selective drug sensitivity score (PEER): 1.08
- selective drug sensitivity score (MHH-CALL-3): -9.42
- selective drug sensitivity score (NALM-6): -0.32
- selective drug sensitivity score 380: -9.62

SMILES: Nc1nc(Cl)nc2c1ncn2[C@@H]1O[C@H](CO)[C@@H](O)[C@@H]1F [Clofarabine] (top concentration 10000 nM)
- selective drug sensitivity score (NALL-1): 1.8
- selective drug sensitivity score (MN-60): -7.1
- selective drug sensitivity score (LC4-1): 9.2
- selective drug sensitivity score (CCRF-CEM): 8.2
- selective drug sensitivity score (MHH-CALL-2): 9.2
- selective drug sensitivity score (COG-LL-319h): 5.6
- selective drug sensitivity score (COG-LL-394h): -27.4
- selective drug sensitivity score (ALL-PO): 1.2
- selective drug sensitivity score (MHH-CALL-4): 6.5
- selective drug sensitivity score (MOLT-16): 4.4
- selective drug sensitivity score (SEM cells): 7
- selective drug sensitivity score (P30-OHKUBO): 10.3
- selective drug sensitivity score (NALM-16): -5.6
- selective drug sensitivity score (JURKAT): 1.9
- selective drug sensitivity score (ALL-SIL): 4.9
- selective drug sensitivity score (COG-LL-332h): 4.3
- selective drug sensitivity score (PEER): -5.9
- selective drug sensitivity score (MHH-CALL-3): 10.9
- selective drug sensitivity score (NALM-6): 2.1
- selective drug sensitivity score 380: 13.4

SMILES: COc1cc(N2CCC(N3CCN(C)CC3)CC2)ccc1Nc1ncc(Cl)c(Nc2ccccc2P(C)(C)=O)n1 [Brigatinib] (top concentration 1000 nM)
- selective drug sensitivity score (NALL-1): -3.34
- selective drug sensitivity score (MN-60): -2.54
- selective drug sensitivity score (LC4-1): -0.94
- selective drug sensitivity score (CCRF-CEM): -3.34
- selective drug sensitivity score (MHH-CALL-2): 7.66
- selective drug sensitivity score (COG-LL-319h): 3.26
- selective drug sensitivity score (COG-LL-394h): -1.84
- selective drug sensitivity score (ALL-PO): 4.16
- selective drug sensitivity score (MHH-CALL-4): -3.34
- selective drug sensitivity score (MOLT-16): -3.34
- selective drug sensitivity score (SEM cells): 4.06
- selective drug sensitivity score (P30-OHKUBO): -3.34
- selective drug sensitivity score (NALM-16): -3.14
- selective drug sensitivity score (JURKAT): -3.34
- selective drug sensitivity score (ALL-SIL): -3.34
- selective drug sensitivity score (COG-LL-332h): -3.34
- selective drug sensitivity score (PEER): -3.34
- selective drug sensitivity score (MHH-CALL-3): -3.34
- selective drug sensitivity score (NALM-6): 0.26
- selective drug sensitivity score 380: -3.34
